Test results from ChEMBL document CHEMBL5723583, “Data for DCP probe BAY-9835” (2024).

Assays:
[1] = target: Thromboxane-A synthase (Homo sapiens) (UniProt P24557); experiment: Inhibition of Thromboxane Synthase at 10.0 µM in the Eurofins-Panlabs selectivity screen; details: Compound concentration 10.0 uM
[2] = target: Growth hormone secretagogue receptor type 1 (Homo sapiens) (UniProt Q92847); experiment: Inhibition of Growth Hormone Secretagogue (GHS, Ghrelin) at 10.0 µM in the Eurofins-Panlabs selectivity screen; details: Compound concentration 10.0 uM
[3] = target: Sodium-dependent serotonin transporter (Homo sapiens) (UniProt P31645); experiment: Inhibition of Transporter, Serotonin (5-Hydroxytryptamine) (SERT) at 10.0 µM in the Eurofins-Panlabs selectivity screen; details: Compound concentration 10.0 uM
[4] = target: D(3) dopamine receptor (Homo sapiens) (UniProt P35462); experiment: Inhibition of Dopamine D3 at 10.0 µM in the Eurofins-Panlabs selectivity screen; details: Compound concentration 10.0 uM
Chain of D(3) dopamine receptor (Homo sapiens) (P35462 whole entry): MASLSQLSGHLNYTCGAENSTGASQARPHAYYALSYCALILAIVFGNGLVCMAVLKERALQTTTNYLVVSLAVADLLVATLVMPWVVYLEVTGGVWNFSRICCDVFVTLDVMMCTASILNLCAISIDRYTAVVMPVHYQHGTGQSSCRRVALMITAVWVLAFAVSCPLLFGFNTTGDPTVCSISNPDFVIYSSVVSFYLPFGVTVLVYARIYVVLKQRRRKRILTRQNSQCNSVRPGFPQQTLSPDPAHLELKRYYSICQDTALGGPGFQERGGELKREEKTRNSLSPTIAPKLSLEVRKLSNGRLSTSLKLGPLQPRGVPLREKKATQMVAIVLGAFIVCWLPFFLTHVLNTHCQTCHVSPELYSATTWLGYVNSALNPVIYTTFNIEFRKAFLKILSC

[5] = target: Matrix metalloproteinase-15 (Homo sapiens, UniProt P51511); experiment: IC50 of hMMP15 at 1.0 µM in the Bayer in-house protease panel
Chain of Matrix metalloproteinase-15 (P51511 whole entry): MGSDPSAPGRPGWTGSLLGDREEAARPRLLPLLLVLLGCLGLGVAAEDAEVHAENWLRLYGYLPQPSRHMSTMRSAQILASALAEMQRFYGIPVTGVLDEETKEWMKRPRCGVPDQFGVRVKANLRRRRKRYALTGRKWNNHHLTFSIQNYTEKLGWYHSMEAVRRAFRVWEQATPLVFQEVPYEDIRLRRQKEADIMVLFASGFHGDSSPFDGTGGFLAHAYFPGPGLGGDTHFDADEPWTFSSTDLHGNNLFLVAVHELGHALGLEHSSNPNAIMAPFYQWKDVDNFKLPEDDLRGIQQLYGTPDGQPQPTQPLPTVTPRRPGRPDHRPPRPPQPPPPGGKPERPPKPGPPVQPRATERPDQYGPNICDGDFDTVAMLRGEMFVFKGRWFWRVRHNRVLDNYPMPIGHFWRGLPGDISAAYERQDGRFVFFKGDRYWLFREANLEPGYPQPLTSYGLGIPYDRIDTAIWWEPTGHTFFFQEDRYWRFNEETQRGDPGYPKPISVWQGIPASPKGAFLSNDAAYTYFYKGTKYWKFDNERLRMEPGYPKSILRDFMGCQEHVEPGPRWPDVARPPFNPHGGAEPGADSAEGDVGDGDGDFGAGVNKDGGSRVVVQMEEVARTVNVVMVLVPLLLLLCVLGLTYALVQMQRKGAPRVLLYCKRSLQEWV

[6] = target: Alpha-2B adrenergic receptor (Homo sapiens) (UniProt P18089); experiment: Inhibition of Adrenergic alpha2B at 10.0 µM in the Eurofins-Panlabs selectivity screen; details: Compound concentration 10.0 uM
[7] = target: A disintegrin and metalloproteinase with thrombospondin motifs 5 (Homo sapiens, UniProt Q9UNA0); experiment: IC50 of hADAMTS5 at 1.0 µM in the Bayer in-house protease panel
[8] = target: Vasopressin V1a receptor (Homo sapiens) (UniProt P37288); experiment: Inhibition of Vasopressin V1A at 10.0 µM in the Eurofins-Panlabs selectivity screen; details: Compound concentration 10.0 uM
[9] = target: Type-1 angiotensin II receptor (Homo sapiens) (UniProt P30556); experiment: Inhibition of Angiotensin AT1 at 10.0 µM in the Eurofins-Panlabs selectivity screen; details: Compound concentration 10.0 uM
Chain of Type-1 angiotensin II receptor (Homo sapiens) (P30556 whole entry): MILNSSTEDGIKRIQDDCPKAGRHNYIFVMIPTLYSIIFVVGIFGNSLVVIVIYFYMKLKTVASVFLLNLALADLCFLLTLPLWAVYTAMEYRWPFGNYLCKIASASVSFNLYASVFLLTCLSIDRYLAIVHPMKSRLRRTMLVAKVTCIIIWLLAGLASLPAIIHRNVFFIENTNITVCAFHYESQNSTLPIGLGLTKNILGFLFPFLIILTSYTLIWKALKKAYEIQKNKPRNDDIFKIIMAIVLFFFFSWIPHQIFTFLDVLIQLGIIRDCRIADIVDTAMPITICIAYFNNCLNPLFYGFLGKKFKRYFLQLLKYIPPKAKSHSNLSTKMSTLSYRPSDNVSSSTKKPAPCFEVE

[10] = target: 3',5'-cyclic-AMP phosphodiesterase 4D (Homo sapiens) (UniProt Q08499); experiment: Inhibition of Phosphodiesterase PDE4D2 at 10.0 µM in the Eurofins-Panlabs selectivity screen; details: Compound concentration 10.0 uM
[11] = target: Insulin receptor (Homo sapiens) (UniProt P06213); experiment: Inhibition of Insulin at 10.0 µM in the Eurofins-Panlabs selectivity screen; details: Rattus norvegicus; Compound concentration 10.0 uM
[12] = target: Glucocorticoid receptor (Homo sapiens) (UniProt P04150); experiment: Inhibition of Glucocorticoid at 10.0 µM in the Eurofins-Panlabs selectivity screen; details: Compound concentration 10.0 uM
Chain of Glucocorticoid receptor (Homo sapiens) (P04150 whole entry): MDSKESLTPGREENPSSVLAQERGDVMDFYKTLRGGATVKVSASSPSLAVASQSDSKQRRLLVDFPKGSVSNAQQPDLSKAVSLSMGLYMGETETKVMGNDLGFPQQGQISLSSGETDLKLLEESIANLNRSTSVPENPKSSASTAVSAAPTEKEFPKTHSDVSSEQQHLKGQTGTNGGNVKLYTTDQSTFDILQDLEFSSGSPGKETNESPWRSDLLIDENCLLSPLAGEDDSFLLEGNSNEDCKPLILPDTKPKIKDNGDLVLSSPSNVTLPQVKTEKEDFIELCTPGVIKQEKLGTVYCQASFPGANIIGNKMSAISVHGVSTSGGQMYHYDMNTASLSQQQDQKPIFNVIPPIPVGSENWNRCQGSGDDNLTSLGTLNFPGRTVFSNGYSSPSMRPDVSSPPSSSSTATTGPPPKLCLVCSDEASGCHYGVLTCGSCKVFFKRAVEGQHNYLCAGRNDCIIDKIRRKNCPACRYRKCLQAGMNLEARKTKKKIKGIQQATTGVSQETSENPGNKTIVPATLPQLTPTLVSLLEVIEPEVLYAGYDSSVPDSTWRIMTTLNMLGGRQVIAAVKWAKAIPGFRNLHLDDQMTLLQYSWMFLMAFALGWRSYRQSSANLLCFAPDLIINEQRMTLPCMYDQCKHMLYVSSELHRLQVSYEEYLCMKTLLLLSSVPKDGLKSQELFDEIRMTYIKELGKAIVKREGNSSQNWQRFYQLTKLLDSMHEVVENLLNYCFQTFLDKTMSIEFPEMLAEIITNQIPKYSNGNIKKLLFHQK

[13] = target: Estrogen receptor (Homo sapiens) (UniProt P03372); experiment: Inhibition of Estrogen ERalpha at 10.0 µM in the Eurofins-Panlabs selectivity screen; details: Compound concentration 10.0 uM
[14] = target: Equilibrative nucleoside transporter 1/2/3/4 (Homo sapiens) (UniProt Q99808+Q7RTT9+Q14542+Q9BZD2); experiment: Inhibition of Transporter, Adenosine at 10.0 µM in the Eurofins-Panlabs selectivity screen; assay type: protein assay; details: Compound concentration 10.0 uM
[15] = target: 5-hydroxytryptamine receptor 2B (Homo sapiens) (UniProt P41595); experiment: Inhibition of Serotonin (5-Hydroxytryptamine) 5-HT2B at 10.0 µM in the Eurofins-Panlabs selectivity screen; details: Compound concentration 10.0 uM
[16] = target: 5-hydroxytryptamine receptor 1A (Homo sapiens) (UniProt P08908); experiment: Inhibition of Serotonin (5-Hydroxytryptamine) 5-HT1A at 10.0 µM in the Eurofins-Panlabs selectivity screen; details: Compound concentration 10.0 uM
Chain of 5-hydroxytryptamine receptor 1A (Homo sapiens) (P08908 whole entry): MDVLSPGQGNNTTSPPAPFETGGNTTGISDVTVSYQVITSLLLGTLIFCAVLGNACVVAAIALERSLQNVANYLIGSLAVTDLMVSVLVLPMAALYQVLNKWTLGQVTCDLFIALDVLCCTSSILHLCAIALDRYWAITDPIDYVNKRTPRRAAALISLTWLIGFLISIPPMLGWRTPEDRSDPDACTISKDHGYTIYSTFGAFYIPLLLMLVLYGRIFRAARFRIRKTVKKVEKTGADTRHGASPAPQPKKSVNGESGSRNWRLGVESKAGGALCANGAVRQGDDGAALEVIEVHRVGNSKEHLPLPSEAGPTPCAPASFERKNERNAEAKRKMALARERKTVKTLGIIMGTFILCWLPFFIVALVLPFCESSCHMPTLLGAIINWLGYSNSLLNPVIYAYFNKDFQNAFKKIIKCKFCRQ

[17] = target: Matrix metalloproteinase-14 (Homo sapiens, UniProt P50281); experiment: IC50 of hMMP14 at 1.0 µM in the Bayer in-house protease panel
[18] = target: Cannabinoid receptor 1 (Homo sapiens) (UniProt P21554); experiment: Inhibition of Cannabinoid CB1 at 10.0 µM in the Eurofins-Panlabs selectivity screen; details: Compound concentration 10.0 uM
[19] = target: Calpain-1 catalytic subunit (Homo sapiens, UniProt P07384); experiment: IC50 of Calpain 1 at 1.0 µM in the Bayer in-house protease panel
[20] = target: cGMP-specific 3',5'-cyclic phosphodiesterase (Homo sapiens) (UniProt O76074); experiment: Inhibition of Phosphodiesterase PDE5 at 10.0 µM in the Eurofins-Panlabs selectivity screen; details: Compound concentration 10.0 uM
[21] = target: Gamma-aminobutyric acid type B receptor subunit 1 (Homo sapiens) (UniProt Q9UBS5); experiment: Inhibition of GABAB, Non-Selective at 10.0 µM in the Eurofins-Panlabs selectivity screen; details: Rattus norvegicus; Compound concentration 10.0 uM
[22] = target: Muscarinic acetylcholine receptor M3 (Homo sapiens) (UniProt P20309); experiment: Inhibition of Muscarinic M3 at 10.0 µM in the Eurofins-Panlabs selectivity screen; details: Compound concentration 10.0 uM
[23] = target: Mucosa-associated lymphoid tissue lymphoma translocation protein 1 (Homo sapiens, UniProt Q9UDY8); experiment: IC50 of MALT1 at 1.0 µM in the Bayer in-house protease panel
[24] = target: 5-hydroxytryptamine receptor 2C (Homo sapiens) (UniProt P28335); experiment: Inhibition of Serotonin (5-Hydroxytryptamine) 5-HT2C at 10.0 µM in the Eurofins-Panlabs selectivity screen; details: Compound concentration 10.0 uM
Chain of 5-hydroxytryptamine receptor 2C (Homo sapiens) (P28335 whole entry): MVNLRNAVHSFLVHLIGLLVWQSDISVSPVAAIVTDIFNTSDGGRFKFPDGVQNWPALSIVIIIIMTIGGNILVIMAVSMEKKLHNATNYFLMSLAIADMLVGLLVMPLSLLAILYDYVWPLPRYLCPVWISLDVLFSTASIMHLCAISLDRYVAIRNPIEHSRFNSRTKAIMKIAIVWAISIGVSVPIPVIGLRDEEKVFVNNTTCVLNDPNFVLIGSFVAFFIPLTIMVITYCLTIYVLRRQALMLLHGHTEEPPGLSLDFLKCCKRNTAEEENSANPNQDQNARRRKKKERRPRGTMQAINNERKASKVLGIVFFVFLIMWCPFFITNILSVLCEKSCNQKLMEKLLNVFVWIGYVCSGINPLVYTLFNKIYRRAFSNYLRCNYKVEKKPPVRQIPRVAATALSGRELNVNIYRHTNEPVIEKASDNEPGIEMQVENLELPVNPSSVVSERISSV

[25] = target: T1, GABA-A receptor; anion channel (Rattus norvegicus) (UniProt O09028+P15431+P18506+P18508+P19969+P20236+P23574+P23576+P28471+P28473+P30191+P62813+P63079+P63138+Q91ZM7+Q9ES14); experiment: Inhibition of GABAA, Flunitrazepam, Central at 10.0 µM in the Eurofins-Panlabs selectivity screen; assay type: protein-complex assay; details: Compound concentration 10.0 uM
[26] = target: Endothelin-1 receptor (Homo sapiens) (UniProt P25101); experiment: Inhibition of Endothelin ETA at 10.0 µM in the Eurofins-Panlabs selectivity screen; details: Compound concentration 10.0 uM
[27] = target: T1, GABA-A receptor; anion channel (Rattus norvegicus); experiment: Inhibition of GABAA, Chloride Channel, TBOB at 10.0 µM in the Eurofins-Panlabs selectivity screen; assay type: protein-complex assay; details: Compound concentration 10.0 uM
[28] = target: Beta-3 adrenergic receptor (Homo sapiens) (UniProt P13945); experiment: Inhibition of Adrenergic beta3 at 10.0 µM in the Eurofins-Panlabs selectivity screen; details: Compound concentration 10.0 uM
[29] = target: Neuronal acetylcholine receptor; alpha3/beta4 (Homo sapiens) (UniProt P30926+P32297); experiment: Inhibition of Nicotinic Acetylcholine alpha3beta4 at 10.0 µM in the Eurofins-Panlabs selectivity screen; assay type: protein-complex assay; details: Compound concentration 10.0 uM
[30] = target: Glutamate NMDA receptor (Rattus norvegicus) (UniProt P35439+Q00959+Q00960+Q00961+Q62645+Q8VHN2+Q9R1M7); experiment: Inhibition of Glutamate, NMDA, Agonism at 10.0 µM in the Eurofins-Panlabs selectivity screen; assay type: protein-complex assay; details: Compound concentration 10.0 uM
Caspase-3 = Caspase-3 (Homo sapiens, UniProt P42574); experiment: IC50 of Caspase 3 at 1.0 µM in the Bayer in-house protease panel
Chain of Caspase-3 (P42574 29-175 limits assumed): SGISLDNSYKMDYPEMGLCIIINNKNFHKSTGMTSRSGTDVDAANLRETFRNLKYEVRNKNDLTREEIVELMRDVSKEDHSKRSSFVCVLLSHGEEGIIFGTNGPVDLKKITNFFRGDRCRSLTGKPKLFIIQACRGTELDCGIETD
Chain of Caspase-3 (P42574 176-277 limits assumed): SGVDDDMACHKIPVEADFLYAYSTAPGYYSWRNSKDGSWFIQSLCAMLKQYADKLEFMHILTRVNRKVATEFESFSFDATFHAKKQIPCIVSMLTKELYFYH

[31] = target: Kappa-type opioid receptor (Homo sapiens) (UniProt P41145); experiment: Inhibition of Opiate kappa (OP2, KOP) at 10.0 µM in the Eurofins-Panlabs selectivity screen; details: Compound concentration 10.0 uM
[32] = target: 3-hydroxy-3-methylglutaryl-coenzyme A reductase (Homo sapiens) (UniProt P04035); experiment: Inhibition of HMG-CoA Reductase at 10.0 µM in the Eurofins-Panlabs selectivity screen; details: Compound concentration 10.0 uM
[33] = target: B2 bradykinin receptor (Homo sapiens) (UniProt P30411); experiment: Inhibition of Bradykinin B2 at 10.0 µM in the Eurofins-Panlabs selectivity screen; details: Compound concentration 10.0 uM
Chain of B2 bradykinin receptor (Homo sapiens) (P30411 whole entry): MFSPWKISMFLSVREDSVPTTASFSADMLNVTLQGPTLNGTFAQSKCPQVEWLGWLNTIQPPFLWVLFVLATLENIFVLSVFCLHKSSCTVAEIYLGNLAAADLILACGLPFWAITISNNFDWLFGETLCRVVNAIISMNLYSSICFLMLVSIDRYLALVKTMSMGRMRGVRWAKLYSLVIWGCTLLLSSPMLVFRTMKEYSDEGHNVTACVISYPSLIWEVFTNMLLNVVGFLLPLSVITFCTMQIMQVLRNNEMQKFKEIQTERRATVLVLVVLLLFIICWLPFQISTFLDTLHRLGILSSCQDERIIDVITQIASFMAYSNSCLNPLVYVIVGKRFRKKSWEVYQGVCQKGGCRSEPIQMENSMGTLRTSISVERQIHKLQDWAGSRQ

[34] = target: D(2) dopamine receptor (Homo sapiens) (UniProt P14416); experiment: Inhibition of Dopamine D2S at 10.0 µM in the Eurofins-Panlabs selectivity screen; details: Compound concentration 10.0 uM
Chain of D(2) dopamine receptor (Homo sapiens) (P14416 whole entry): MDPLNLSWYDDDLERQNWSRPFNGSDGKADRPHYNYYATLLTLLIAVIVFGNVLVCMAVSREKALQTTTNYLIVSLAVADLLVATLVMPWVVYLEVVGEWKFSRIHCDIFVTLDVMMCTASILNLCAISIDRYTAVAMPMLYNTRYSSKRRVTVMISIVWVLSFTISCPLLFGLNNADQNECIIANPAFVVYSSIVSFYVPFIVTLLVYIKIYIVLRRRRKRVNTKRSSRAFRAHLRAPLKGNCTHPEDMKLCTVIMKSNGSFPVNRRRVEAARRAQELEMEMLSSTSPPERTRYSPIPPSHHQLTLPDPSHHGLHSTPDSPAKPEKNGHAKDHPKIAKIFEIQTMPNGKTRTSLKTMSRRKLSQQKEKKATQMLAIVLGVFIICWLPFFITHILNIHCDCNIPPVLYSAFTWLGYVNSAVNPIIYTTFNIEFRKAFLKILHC

Chain of Thromboxane-A synthase (Homo sapiens) (P24557 whole entry): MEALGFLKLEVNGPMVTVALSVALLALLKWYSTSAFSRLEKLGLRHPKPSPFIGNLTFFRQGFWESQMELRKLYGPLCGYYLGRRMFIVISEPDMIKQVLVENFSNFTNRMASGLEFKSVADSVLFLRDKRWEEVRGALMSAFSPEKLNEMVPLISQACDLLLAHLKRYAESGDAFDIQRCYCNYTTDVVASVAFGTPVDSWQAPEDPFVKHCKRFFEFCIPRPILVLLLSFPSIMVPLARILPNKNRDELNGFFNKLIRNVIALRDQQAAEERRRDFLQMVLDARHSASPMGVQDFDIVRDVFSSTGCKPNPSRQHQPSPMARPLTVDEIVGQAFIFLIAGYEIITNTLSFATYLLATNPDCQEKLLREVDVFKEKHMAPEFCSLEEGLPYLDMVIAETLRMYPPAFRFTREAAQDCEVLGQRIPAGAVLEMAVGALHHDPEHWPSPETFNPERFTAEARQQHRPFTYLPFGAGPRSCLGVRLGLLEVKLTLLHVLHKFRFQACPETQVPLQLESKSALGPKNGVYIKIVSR

With Cn1nccc1[C@]1(CNC(=O)c2ccc(F)c(F)c2-c2ccc(C(F)(F)F)cc2)NC(=O)NC1=O the inhibition [1] was 11%, the inhibition [2] was 6% and the inhibition [3] was 10%. For the same compound, the inhibition [4] was 2%, the IC50 [5] was 78.5 µM and the inhibition [6] was -3%. For the same compound, the IC50 [7] was 9.92 µM, the inhibition [8] was 7% and the inhibition [9] was -1%. The inhibition [10] was 3%, the inhibition [11] was -8% and the inhibition [12] was 3%. It also gave an inhibition [13] of 13%, an inhibition [14] of 11% and an inhibition [15] of -1%. It also gave an inhibition [16] of -3%, an IC50 [17] of over 100 µM and an inhibition [18] of -3%. The IC50 [19] was over 100 µM, the inhibition [20] was -5% and the inhibition [21] was 3%. The inhibition [22] was 9%, the IC50 [23] was over 100 µM and the inhibition [24] was -1%. It also gave an inhibition [25] of -6%, an inhibition [26] of 2% and an inhibition [27] of 0%. The inhibition [28] was -3%, the inhibition [29] was 2% and the inhibition [30] was 1%. It also gave an IC50 (Caspase-3) of over 100 µM, an inhibition [31] of -4% and an inhibition [32] of -5%. The inhibition [33] was -6% and the inhibition [34] was 0%.
